From patent US7220744B2, “Monocyclic substituted phenyl methanones” (Hoffman-La Roche Inc., priority 2005, dated 2007)

Target: T1, mGlyT-1b (Mus musculus, UniProt P28571)
T1 construct: host or cells: Flp-in-CHO cells (vendor and catalogue number are those of the host cell line)
T1 sequence (P28571 1-651 isoform P28571-2): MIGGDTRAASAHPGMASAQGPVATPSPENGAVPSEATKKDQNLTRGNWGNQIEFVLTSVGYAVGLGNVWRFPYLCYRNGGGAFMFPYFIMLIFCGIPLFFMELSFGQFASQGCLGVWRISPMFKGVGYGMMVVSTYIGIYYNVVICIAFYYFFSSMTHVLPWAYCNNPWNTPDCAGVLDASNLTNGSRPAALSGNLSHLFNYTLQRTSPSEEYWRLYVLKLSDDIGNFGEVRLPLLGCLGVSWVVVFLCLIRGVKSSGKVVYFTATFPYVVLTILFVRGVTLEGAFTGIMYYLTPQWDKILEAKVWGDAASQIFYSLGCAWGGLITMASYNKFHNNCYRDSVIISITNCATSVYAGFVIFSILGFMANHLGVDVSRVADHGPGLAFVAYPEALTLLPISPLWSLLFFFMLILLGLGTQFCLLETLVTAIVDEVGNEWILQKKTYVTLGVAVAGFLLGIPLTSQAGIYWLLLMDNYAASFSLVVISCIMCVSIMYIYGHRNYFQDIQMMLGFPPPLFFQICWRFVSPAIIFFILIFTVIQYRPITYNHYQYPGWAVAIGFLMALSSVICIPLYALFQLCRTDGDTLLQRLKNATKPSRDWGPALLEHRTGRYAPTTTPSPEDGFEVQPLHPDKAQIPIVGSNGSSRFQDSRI
Test: Glycine Uptake Inhibition Assay (mGlyT-1b)
Assay type: cell-based
Settings: inhibition of [3H]-glycine uptake in Flp-in-CHO cells transfected with mGlyT-1b cDNA; 20 min preincubation at 22° C.; read-out: IC50 (μM) at GlyT-1
Experimental: DMEM complete medium: Nutrient mixture F-12 (Gibco Life-technologies), fetal bovine serum (FBS) 5%, (Gibco life technologies), Penicillin/Streptomycin 1% (Gibco life technologies), Hygromycin 0.6 mg/ml (Gibco life technologies), Glutamine 1 mM Gibco life technologies)
Uptake buffer (UB): 150 mM NaCl, 10 mM Hepes-Tris, pH 7.4, 1 mM CaCl2, 2.5 mM KCl, 2.5 mM MgSO4, 10 mM (+) D-glucose.
Flp-in™-CHO (Invitrogen Cat n° R758-07) cells stably transfected with mGlyT1b cDNA.
Glycine Uptake Inhibition Assay (mGlyT-1b)
On day 1 mammalian cells, (Flp-in™-CHO), transfected with mGlyT-1b cDNA, were plated at the density of 40,000 cells/well in complete F-12 medium, without hygromycin in 96-well culture plates. On day 2, the medium was aspirated and the cells were washed twice with uptake buffer (UB). The cells were then incubated for 20 min at 22° C. with either (i) no potential competitor, (ii) 10 mM non-radioactive glycine, (iii) a concentration of a potential inhibitor. A range of concentrations of the potential inhibitor was used to generate data for calculating the concentration of inhibitor resulting in 50% of the effect (e.g. IC50, the concentration of the competitor inhibiting glycine uptake of 50%). A solution was then immediately added containing [^3H]-glycine 60 nM (11–16 Ci/mmol) and 25 μM non-radioactive glycine. The plates were incubated with gentle shaking and the reaction was stopped by aspiration of the mixture and washing (three times) with ice-cold UB. The cells were lysed with scintillation liquid, shaken 3 hours and the radioactivity in the cells was counted using a scintillation counter.

| SMILES | IC50 |
| --- | --- |
| CC(C)Oc1ccc(S(C)(=O)=O)cc1C(=O)N1CCN(c2ncc(S(=O)(=O)c3ccccc3)s2)CC1 [Example 4, [4-(5-Benzenesulfonyl-thiazol-2-yl)-piperazin-1-yl]-(2-isopropoxy-5-methanesulfonyl-phenyl)-methanone] | 0.061 µM |
| CCS(=O)(=O)c1ccc(OC(C)C(F)(F)F)c(C(=O)N2CCN(c3ncc(C(F)(F)F)s3)CC2)c1 (centres unmarked) [Example 74, [5-Ethanesulfonyl-2-(2,2,2-trifluoro-1-methyl-ethoxy)-phenyl]-[4-(5-trifluoromethyl-thiazol-2-yl)-piperazin-1-yl]-methanone] | 0.031 µM |
| CS(=O)(=O)c1ccc(OC2CCCC2)c(C(=O)N2CCN(c3ncc(S(=O)(=O)c4ccccc4)s3)CC2)c1 [Example 30, [4-(5-Benzenesulfonyl-thiazol-2-yl)-piperazin-1-yl]-(2-cyclopentyloxy-5-methanesulfonyl-phenyl)-methanone] | 0.023 µM |
| CC[C@H](C)Oc1ccc(S(C)(=O)=O)cc1C(=O)N1CCN(c2ncc(C(F)(F)F)s2)CC1 [Example 78, (2-((S)-sec-Butoxy)-5-methanesulfonyl-phenyl)-[4-(5-trifluoromethyl-thiazol-2-yl)-piperazin-1-yl]-methanone] | 0.089 µM |
| CNS(=O)(=O)c1ccc(OC2CCCC2)c(C(=O)N2CCN(c3nc(-c4ccccc4)ns3)CC2)c1 [Example 100, 4-Cyclopentyloxy-N-methyl-3-[4-(3-phenyl-[1,2,4]thiadiazol-5-yl)-piperazine-1-carbonyl]-benzenesulfonamide] | 0.055 µM |
| CC(C)(C)COc1ccc(S(C)(=O)=O)cc1C(=O)N1CCN(c2ncc(C#N)s2)CC1 [Example 19, 2-{4-[2-(2,2-Dimethyl-propoxy)-5-methanesulfonyl-benzoyl]-piperazin-1-yl}-thiazole-5-carbonitrile] | 0.043 µM |
| CC(C)Sc1ccc(S(C)(=O)=O)cc1C(=O)N1CCN(c2ncc(C(F)(F)F)s2)CC1 [Example 84, (2-Isopropylsulfanyl-5-methanesulfonyl-phenyl)-[4-(5-trifluoromethyl-thiazol-2-yl)-piperazin-1-yl]-methanone] | 0.076 µM |
| Cc1nc(N2CCN(C(=O)c3cc(S(C)(=O)=O)ccc3OC(C)C)CC2)sc1C(F)(F)F [Example 79, (2-Isopropoxy-5-methanesulfonyl-phenyl)-[4-(4-methyl-5-trifluoromethyl-thiazol-2-yl)-piperazin-1-yl]-methanone] | 0.067 µM |
| CCCCS(=O)(=O)c1cnc(N2CCN(C(=O)c3cc(S(C)(=O)=O)ccc3OCC(C)(C)C)CC2)s1 [Example 42, {4-[5-(Butane-1-sulfonyl)-thiazol-2-yl]-piperazin-1-yl}-[2-(2,2-dimethyl-propoxy)-5-methanesulfonyl-phenyl]-methanone] | 0.046 µM |
| CC(C)COc1ccc(S(C)(=O)=O)cc1C(=O)N1CCN(c2ncc(S(=O)(=O)c3ccccc3)s2)CC1 [Example 31, [4-(5-Benzenesulfonyl-thiazol-2-yl)-piperazin-1-yl]-(2-isobutoxy-5-methanesulfonyl-phenyl)-methanone] | 0.024 µM |
| Cc1nc(N2CCN(C(=O)c3cc(S(C)(=O)=O)ccc3O[C@@H](C)C(F)(F)F)CC2)sc1C(F)(F)F [Example 80, [5-Methanesulfonyl-2-((S)-2,2,2-trifluoro-1-methyl-ethoxy)-phenyl]-[4-(4-methyl-5-trifluoromethyl-thiazol-2-yl)-piperazin-1-yl]-methanone] | 0.046 µM |
| CNS(=O)(=O)c1ccc(OC2CCCC2)c(C(=O)N2CCN(c3nnc(C(F)(F)F)s3)CC2)c1 [Example 101, 4-Cyclopentyloxy-N-methyl-3-[4-(5-trifluoromethyl-[1,3,4]thiadiazol-2-yl)-piperazine-1-carbonyl]-benzenesulfonamide] | 0.026 µM |
| CC[C@@H](C)Oc1ccc(S(C)(=O)=O)cc1C(=O)N1CCN(c2ncc(C(F)(F)F)s2)CC1 [Example 77, (2-((R)-sec-Butoxy)-5-methanesulfonyl-phenyl)-[4-(5-trifluoromethyl-thiazol-2-yl)-piperazin-1-yl]-methanone] | 0.1 µM |
| CC(C)COc1ccc(S(C)(=O)=O)cc1C(=O)N1CCN(c2ncc(C#N)s2)CC1 [Example 16, 2-[4-(2-Isobutoxy-5-methanesulfonyl-benzoyl)-piperazin-1-yl]-thiazole-5-carbonitrile] | 0.065 µM |
| Cc1nc(N2CCN(C(=O)c3cc(S(C)(=O)=O)ccc3O[C@H](C)C(F)(F)F)CC2)sc1C(F)(F)F [Example 81, [5-Methanesulfonyl-2-((R)-2,2,2-trifluoro-1-methyl-ethoxy)-phenyl]-[4-(4-methyl-5-trifluoromethyl-thiazol-2-yl)-piperazin-1-yl]-methanone] | 0.044 µM |

Further compounds by falling IC50, results first:

| IC50 | SMILES |
| --- | --- |
| 0.098 µM | CC(Oc1ccc(S(C)(=O)=O)cc1C(=O)N1CCN(c2ncc(C(F)(F)F)s2)CC1)C(F)(F)F (centres unmarked) [Example 59, [5-Methanesulfonyl-2-(2,2,2-trifluoro-1-methyl-ethoxy)-phenyl]-[4-(5-trifluoromethyl-thiazol-2-yl)-piperazin-1-yl]-methanone] |
| 0.083 µM | CS(=O)(=O)c1ccc(OCC2CCC2)c(C(=O)N2CCN(c3ncc(C#N)s3)CC2)c1 [Example 14, 2-[4-(2-Cyclobutylmethoxy-5-methanesulfonyl-benzoyl)-piperazin-1-yl]-thiazole-5-carbonitrile] |
| 0.082 µM | CC(Oc1ccc(S(C)(=O)=O)cc1C(=O)N1CCN(c2ncc(C#N)s2)CC1)C(F)(F)F (centres unmarked) [Example 10, 2-{4-[5-Methanesulfonyl-2-(2,2,2-trifluoro-1-methyl-ethoxy)-benzoyl]-piperazin-1-yl}-thiazole-5-carbonitrile] |
| 0.082 µM | C[C@@H](Oc1ccc(S(C)(=O)=O)cc1C(=O)N1CCN(c2ncc(C(F)(F)F)s2)CC1)C(F)(F)F [Example 68, [5-Methanesulfonyl-2-((R)-2,2,2-trifluoro-1-methyl-ethoxy)-phenyl]-[4-(5-trifluoromethyl-thiazol-2-yl)-piperazin-1-yl]-methanone] |
| 0.061 µM | CC(C)(Oc1ccc(S(C)(=O)=O)cc1C(=O)N1CCN(c2ncc(C(F)(F)F)s2)CC1)C(F)(F)F [Example 66, [5-Methanesulfonyl-2-(2,2,2-trifluoro-1,1-dimethyl-ethoxy)-phenyl]-[4-(5-trifluoromethyl-thiazol-2-yl)-piperazin-1-yl]-methanone] |
| 0.056 µM | CC(Oc1ccc(S(C)(=O)=O)cc1C(=O)N1CCN(c2ncc(CC(F)(F)F)s2)CC1)C(F)(F)F (centres unmarked) [Example 69, [5-Methanesulfonyl-2-(2,2,2-trifluoro-1-methyl-ethoxy)-phenyl]-{4-[5-(2,2,2-trifluoro-ethyl)-thiazol-2-yl]-piperazin-1-yl}-methanone] |
| 0.017 µM | CC(C)(C)COc1ccc(S(C)(=O)=O)cc1C(=O)N1CCN(c2ncc(S(=O)(=O)c3ccccc3)s2)CC1 [Example 29, [4-(5-Benzenesulfonyl-thiazol-2-yl)-piperazin-1-yl]-[2-(2,2-dimethyl-propoxy)-5-methanesulfonyl-phenyl]-methanone] |
| 0.006 µM | CS(=O)(=O)c1ccc(OCC(F)(F)C(F)(F)F)c(C(=O)N2CCN(c3ncc(C(F)(F)F)s3)CC2)c1 [Example 103, [5-Methanesulfonyl-2-(2,2,3,3,3-pentafluoro-propoxy)-phenyl]-[4-(5-trifluoromethyl-thiazol-2-yl)-piperazin-1-yl]-methanone] |
